Laboratory results: patent US6156757A, “1,2,3,4-tetrahydro-benzofuro[3,2-C]pyridine derivatives” (Janssen Pharmaceutica N.V., priority 1997, dated 2000)

How the values were obtained:
[1] = biological target: T1, cloned human α2A receptors (Homo sapiens, UniProt P08913); assay: In vitro binding affinity for α2A receptors (3H-rauwolscine competition binding); conditions: at a test concentration of 10^-8 M or less; CHO cell expressing cloned human α2A receptors
T1 sequence (P08913 1-465): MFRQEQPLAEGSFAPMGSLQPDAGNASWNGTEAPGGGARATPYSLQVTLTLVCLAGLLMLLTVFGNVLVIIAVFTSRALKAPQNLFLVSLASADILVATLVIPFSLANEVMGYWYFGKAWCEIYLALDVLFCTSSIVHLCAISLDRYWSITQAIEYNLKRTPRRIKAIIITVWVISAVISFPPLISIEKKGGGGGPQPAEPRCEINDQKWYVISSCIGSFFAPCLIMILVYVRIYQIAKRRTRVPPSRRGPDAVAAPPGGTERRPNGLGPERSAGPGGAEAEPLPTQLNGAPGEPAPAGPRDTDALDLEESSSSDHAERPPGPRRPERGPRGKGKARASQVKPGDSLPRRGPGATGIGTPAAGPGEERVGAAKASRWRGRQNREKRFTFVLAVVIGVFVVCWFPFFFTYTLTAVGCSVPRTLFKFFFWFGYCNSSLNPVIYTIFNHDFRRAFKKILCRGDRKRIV
Protocol: (§1) The interaction of the compounds of formula (I) with α2 receptors was assessed in in vitro radioligand binding experiments.
(§2) In general, a low concentration of a radioligand with a high binding affinity for a particular receptor is incubated with a sample of a tissue preparation enriched in a particular receptor or with a preparation of cells expressing cloned human receptors in a buffered medium. During the incubation, the radioligand binds to the receptor. When equilibrium of binding is reached, the receptor bound radioactivity is separated from the non-bound radioactivity, and the receptor bound activity is counted. The interaction of the test compounds with the receptor is assessed in competition binding experiments. Various concentrations of the test compound are added to the incubation mixture containing the receptor preparation and the radioligand. Binding of the radioligand will be inhibited by the test compound in proportion to its binding affinity and its concentration.
The radioligand used for α2A receptor binding is ^3 H-rauwolscine and the receptor preparation used is the Chinese Hamster Ovary (CHO) cell expressing cloned human α2A receptors.

[2] = biological target: T2, cloned human α2B receptors (Homo sapiens, UniProt P18089); assay: In vitro binding affinity for α2B receptors (3H-rauwolscine competition binding); conditions: at a test concentration of 10^-8 M or less; CHO cell expressing cloned human α2B receptors
T2 construct: expressed in transfected cells; host or cells: CHO cells
T2 sequence (P18089 1-450): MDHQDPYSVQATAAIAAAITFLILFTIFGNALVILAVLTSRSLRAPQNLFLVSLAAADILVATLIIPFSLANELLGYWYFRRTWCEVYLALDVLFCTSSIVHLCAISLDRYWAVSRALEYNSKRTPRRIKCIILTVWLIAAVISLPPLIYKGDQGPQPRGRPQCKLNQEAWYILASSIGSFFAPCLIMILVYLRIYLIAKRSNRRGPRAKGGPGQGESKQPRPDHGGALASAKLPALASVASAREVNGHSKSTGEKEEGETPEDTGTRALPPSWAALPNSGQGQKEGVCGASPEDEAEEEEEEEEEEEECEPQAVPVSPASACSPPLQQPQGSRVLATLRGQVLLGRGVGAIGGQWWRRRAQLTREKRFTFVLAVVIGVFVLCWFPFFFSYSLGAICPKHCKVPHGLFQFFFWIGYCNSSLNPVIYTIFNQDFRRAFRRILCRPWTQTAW
Protocol: as §1, §2
The radioligand used for α2B receptor binding is ^3 H-rauwolscine and the receptor preparation used is the CHO cell expressing cloned human α2B receptors.

[3] = tested on: α2 -adrenoceptor; assay: Xylazine-induced loss of righting reflex in rats; type: in vivo; conditions: one hour before xylazine 15 mg/kg i.v., male rats, lowest tested dose at which at least 66% of animals showed no loss of righting reflex
Protocol: This test is based upon the fact that centrally acting α2 -adrenoceptor antagonists reverse the loss of righting reflex induced by an intravenous injection of the α2 agonist xylazine. One hour before injection of xylazine (15 mg/kg, i.v.), male rats (200-250 g) were pretreated with a test compound (er os (p.o.) or subcutaneously (s.c.)) or solvent.

[4] = biological target: T3, cloned human α2C receptors (Homo sapiens, UniProt P18825); assay: In vitro binding affinity for α2C receptors (3H-rauwolscine competition binding); conditions: at a test concentration of 10^-8 M or less; CHO cell expressing cloned human α2C receptors
T3 construct: expressed in transfected cells; host or cells: CHO cells
T3 sequence (P18825 1-462): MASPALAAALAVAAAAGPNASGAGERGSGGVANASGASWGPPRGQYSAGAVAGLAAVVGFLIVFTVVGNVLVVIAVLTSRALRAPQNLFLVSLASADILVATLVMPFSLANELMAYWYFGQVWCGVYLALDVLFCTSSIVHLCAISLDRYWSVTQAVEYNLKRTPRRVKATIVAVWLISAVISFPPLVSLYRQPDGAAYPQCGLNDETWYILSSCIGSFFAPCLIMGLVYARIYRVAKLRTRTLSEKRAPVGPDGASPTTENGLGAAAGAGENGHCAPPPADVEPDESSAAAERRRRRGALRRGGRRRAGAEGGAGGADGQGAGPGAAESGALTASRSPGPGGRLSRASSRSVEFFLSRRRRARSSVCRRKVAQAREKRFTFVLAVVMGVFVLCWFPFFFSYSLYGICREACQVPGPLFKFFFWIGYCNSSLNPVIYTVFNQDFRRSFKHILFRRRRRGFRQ

SMILES | inhibition [1] [%] | inhibition at up to 0.01 µM [2] [%] | inhibition at up to 0.01 µM [4] [%] | LAD in mg/kg (lowest active dose for xylazine antagonism) ([3]; p.o.) [mg/kg] | LAD in mg/kg (lowest active dose for xylazine antagonism) ([3]; s.c.) [mg/kg]
Cc1nc2sc3ccccc3n2c(=O)c1CCN1CCc2oc3ccccc3c2C1 [Compound 62] | > 50 | > 50 | > 50 | 10.00 | 
Cc1nc2n(C)c(C)cn2c(=O)c1CCN1CCc2oc3ccccc3c2C1 [Compound 30] |  | > 50 |  |  | 2.50
Cc1nc2ccc(Br)cn2c(=O)c1CCN1CCc2oc3ccccc3c2C1 [Compound 31] |  | > 50 |  |  | 0.16
O=c1[nH]c2ccccc2n1CCN1CCc2oc3ccccc3c2C1 [Compound 52] | > 50 | > 50 | > 50 |  | 10.00
O=c1[nH]c2ccccc2n1CCCN1CCc2oc3ccccc3c2C1 [Compound 53] | > 50 | > 50 | > 50 |  | 
Cc1nc2c(C)cccn2c(=O)c1CCN1CCc2oc3ccccc3c2C1 [Compound 33] | > 50 | > 50 | > 50 |  | 10.00
CSc1nc(C)c(CCN2CCc3oc4ccccc4c3C2)c(=O)n1C [Compound 56] |  | > 50 |  |  | 

Continued, in another order:

inhibition [1] [%] | inhibition at up to 0.01 µM [2] [%] | inhibition at up to 0.01 µM [4] [%] | SMILES | LAD in mg/kg (lowest active dose for xylazine antagonism) ([3]; p.o.) [mg/kg] | LAD in mg/kg (lowest active dose for xylazine antagonism) ([3]; s.c.) [mg/kg]
> 50 | > 50 | > 50 | O=c1[nH]c2ccccc2c(=O)n1CCCCN1CCc2oc3ccccc3c2C1 [Compound 63] |  | 
> 50 | > 50 | > 50 | O=c1c(CCN2CCc3oc4ccccc4c3C2)c(-c2ccccc2)nc2n1CCCC2 [Compound 10] |  | 10.00
> 50 | > 50 | > 50 | Cc1nc2ccccn2c(=O)c1CCN1CCc2oc3ccccc3c2C1 [Compound 66] |  | 0.63
